Consider five compounds from ChEMBL document CHEMBL4689842, “EUbOPEN Chemogenomics Library wave 1” (2021).

Molecules are shown by their SMILES.

Common to all, as to type: toxicity, cell-based
One data set relates to HEK-293T. As to the kind of experiment: Incucyte cell viability with HEK293T. Conditions: human, 10 µM, compound concentration 10 uM.
In a further data set the test system is Fibroblast. Briefly: Incucyte cell viability with human fibroblast. To be noted: 10 µM, compound concentration 10 uM.
The subject of a further data set is U2OS. As to the kind of experiment: Incucyte cell viability with U2OS. To be noted: human, 10 µM, compound concentration 10 uM.
The mark [1] stands for this setting: 0 h, replicate number 2, timepoint 0 hours.
[2] abbreviates: 6 h, replicate number 1, timepoint 6 hours.
Setting [3] is: 12 h, replicate number 1, timepoint 12 hours.
[4] abbreviates: 18 h, replicate number 1, timepoint 18 hours.
[5] abbreviates: 24 h, replicate number 1, timepoint 24 hours.
The mark [6] stands for this setting: 0 h, replicate number 1, timepoint 0 hours.
Setting [7] is: 6 h, replicate number 2, timepoint 6 hours.
The mark [8] stands for this setting: 12 h, replicate number 2, timepoint 12 hours.
[9] abbreviates: 24 h, replicate number 2, timepoint 24 hours.
Setting [10] is: 18 h, replicate number 2, timepoint 18 hours.
Note: filed as whole numbers so only -1 and 0 and 1 occur.

As for `COc1cc(N2CCC(O)CC2)ccc1Nc1cc(Nc2ccccc2S(=O)(=O)C(C)C)c2cc[nH]c2n1`, the “Growth Rate” value was determined as 1 in the data set with HEK-293T (setting [1]); 0 in the data set on HEK-293T (setting [2]); 0 with HEK-293T (setting [3]); 0 in the data set on HEK-293T (setting [4]); 0 in the data set with HEK-293T (setting [5]); 1 in the data set on Fibroblast (setting [6]). The “Growth Rate” value is given as 0 in the data set with Fibroblast (setting [1]); 1 in the data set on Fibroblast (setting [7]); 1 with Fibroblast (setting [8]); 1 in the data set with Fibroblast (setting [9]); 1 in the data set on U2OS (setting [2]); 1 in the data set with U2OS (setting [3]). Also, the “Growth Rate” value in the data set on U2OS (setting [4]) was 1; with U2OS (setting [10]) it was 0; in the data set on U2OS (setting [5]), 1; with U2OS (setting [9]), 0.

As for `COc1ccc(Br)cc1S(=O)(=O)NC(=O)/C=C/c1ccccc1Cc1ccc2ccccc2c1`, the “Growth Rate” value in the data set on HEK-293T (setting [1]) is reported as 0; in the data set with HEK-293T (setting [2]) it was 0; in the data set on HEK-293T (setting [7]), 1; in the data set on HEK-293T (setting [3]), 0; in the data set on HEK-293T (setting [8]), 1; with HEK-293T (setting [4]), 0. Further, the “Growth Rate” value in the data set on HEK-293T (setting [10]) is recorded as 1; in the data set on HEK-293T (setting [5]) it was 0; with HEK-293T (setting [9]), 1; with Fibroblast (setting [6]), 1; with Fibroblast (setting [1]) it was 0; in the data set on Fibroblast (setting [2]), 0. Moreover, the “Growth Rate” value with Fibroblast (setting [7]) amounted to 1; in the data set on Fibroblast (setting [3]) it was 1; in the data set with Fibroblast (setting [4]), 0; in the data set with Fibroblast (setting [10]) it was 1; in the data set on Fibroblast (setting [5]), 0; in the data set on Fibroblast (setting [9]), 1. In addition, the “Growth Rate” value is recorded as 0 in the data set with U2OS (setting [6]); 0 with U2OS (setting [7]); 1 in the data set with U2OS (setting [8]); 1 in the data set with U2OS (setting [4]); 1 in the data set with U2OS (setting [5]); 0 in the data set with U2OS (setting [9]).

Turning to `CN1CCN(c2ccc(-c3cccc(CN4CCOCC4)c3)cc2NC(=O)c2c[nH]c(=O)cc2C(F)(F)F)CC1`, the “Growth Rate” value came out at 1 with HEK-293T (setting [1]); 0 with HEK-293T (setting [2]); 0 in the data set on HEK-293T (setting [3]); 1 in the data set on HEK-293T (setting [4]); 1 with HEK-293T (setting [5]); 1 in the data set with Fibroblast (setting [1]). In addition, the “Growth Rate” value in the data set with Fibroblast (setting [7]) was 0; with Fibroblast (setting [3]), 1; in the data set on Fibroblast (setting [8]) it was 0; in the data set on Fibroblast (setting [4]), 1; in the data set on Fibroblast (setting [5]), 1; in the data set with U2OS (setting [6]), 0. Besides, the “Growth Rate” value with U2OS (setting [2]) was found to be 1; in the data set on U2OS (setting [7]) it was 0; with U2OS (setting [3]), 0; in the data set with U2OS (setting [4]), 0; with U2OS (setting [10]), 1; with U2OS (setting [5]), 1. In addition, the “Growth Rate” value in the data set on U2OS (setting [9]) is recorded as 0.

Take `Cl.O=C(Cc1ccc(Cl)c(Cl)c1)N1CCCC[C@H]1CN1CCCC1`: the “Growth Rate” value is on record as 0 in the data set on HEK-293T (setting [1]); 0 with HEK-293T (setting [2]); 0 with HEK-293T (setting [3]); 0 in the data set on HEK-293T (setting [4]); 1 with HEK-293T (setting [10]); 0 in the data set with HEK-293T (setting [5]). In addition, the “Growth Rate” value is listed as 0 in the data set with Fibroblast (setting [6]); 1 in the data set with Fibroblast (setting [1]); 0 in the data set with U2OS (setting [6]); 1 with U2OS (setting [7]); 1 in the data set with U2OS (setting [3]); 1 with U2OS (setting [4]). The “Growth Rate” value in the data set on U2OS (setting [5]) worked out at 1.

Turning to `CC(C)(C)c1ccc(C(=O)Nc2cn3cc(-n4ccnc4)ccc3n2)cc1.Cl.Cl`, the “Growth Rate” value was 1 in the data set with HEK-293T (setting [1]); 0 in the data set on HEK-293T (setting [2]); 0 with HEK-293T (setting [3]); 0 in the data set on HEK-293T (setting [4]); 0 in the data set on HEK-293T (setting [5]); 0 in the data set on Fibroblast (setting [6]). In addition, the “Growth Rate” value with Fibroblast (setting [3]) is listed as 1; in the data set with Fibroblast (setting [4]), 1; in the data set on Fibroblast (setting [5]), 1; in the data set with U2OS (setting [6]) it was 1; with U2OS (setting [1]) it was 0; with U2OS (setting [2]) it was 1. The “Growth Rate” value in the data set on U2OS (setting [3]), in the data set on U2OS (setting [4]) and in the data set on U2OS (setting [5]) was 1 throughout.
